Data published in the supplement of paper PMC11451515.

Test system: NOMO1
Test: cell viability relative to DMSO control; higher = less cytotoxic
Conditions: 48 h
How it was run: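 NOMO1 or SEM (500 cells/well) or P12-Ichikawa (1000 cells/well) leukemia cells were adapted for at least four passages in each medium. They were seeded in 1536-well plates (5 μl) and pin-dosed with library compounds in DMSO over an 11-point threefold series, 47 μM to 0.79 nM. CellTiter-Glo One luminescence was read after 48 h at 37°C. Viability is the per-plate percentage relative to DMSO wells, with cell-free wells as background.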

[1] = HPLM + 10% dialyzed FBS, 0.000781 µM
[2] = HPLM + 10% dialyzed FBS, 0.00234 µM
[3] = HPLM + 10% dialyzed FBS, 0.00702 µM
[4] = HPLM + 10% dialyzed FBS, 0.0211 µM
[5] = HPLM + 10% dialyzed FBS, 0.0632 µM
[6] = HPLM + 10% dialyzed FBS, 0.19 µM
[7] = HPLM + 10% dialyzed FBS, 0.569 µM
[8] = HPLM + 10% dialyzed FBS, 1.71 µM
[9] = HPLM + 10% dialyzed FBS, 5.12 µM
[10] = HPLM + 10% dialyzed FBS, 15.4 µM
[11] = HPLM + 10% dialyzed FBS, 46.1 µM
[12] = RPMI 5 mM glucose + 10% FBS, 0.000781 µM
[13] = RPMI 5 mM glucose + 10% FBS, 0.00234 µM
[14] = RPMI 5 mM glucose + 10% FBS, 0.00702 µM
[15] = RPMI 5 mM glucose + 10% FBS, 0.0211 µM
[16] = RPMI 5 mM glucose + 10% FBS, 0.0632 µM
[17] = RPMI 5 mM glucose + 10% FBS, 0.19 µM
[18] = RPMI 5 mM glucose + 10% FBS, 0.569 µM
[19] = RPMI 5 mM glucose + 10% FBS, 1.71 µM
[20] = RPMI 5 mM glucose + 10% FBS, 5.12 µM
[21] = RPMI 5 mM glucose + 10% FBS, 15.4 µM
[22] = RPMI 5 mM glucose + 10% FBS, 46.1 µM
[23] = RPMI 5 mM glucose + 10% dialyzed FBS, 0.000781 µM
[24] = RPMI 5 mM glucose + 10% dialyzed FBS, 0.00234 µM
[25] = RPMI 5 mM glucose + 10% dialyzed FBS, 0.00702 µM
[26] = RPMI 5 mM glucose + 10% dialyzed FBS, 0.0211 µM
[27] = RPMI 5 mM glucose + 10% dialyzed FBS, 0.0632 µM
[28] = RPMI 5 mM glucose + 10% dialyzed FBS, 0.19 µM
[29] = RPMI 5 mM glucose + 10% dialyzed FBS, 0.569 µM
[30] = RPMI 5 mM glucose + 10% dialyzed FBS, 1.71 µM
[31] = RPMI 5 mM glucose + 10% dialyzed FBS, 5.12 µM
[32] = RPMI 5 mM glucose + 10% dialyzed FBS, 15.4 µM
[33] = RPMI 5 mM glucose + 10% dialyzed FBS, 46.1 µM

Compound | cell viability [1] [%] | cell viability [2] [%] | cell viability [3] [%] | cell viability [4] [%] | cell viability [5] [%] | cell viability [6] [%] | cell viability [7] [%] | cell viability [8] [%] | cell viability [9] [%] | cell viability [10] [%] | cell viability [11] [%] | cell viability [12] [%] | cell viability [13] [%] | cell viability [14] [%] | cell viability [15] [%] | cell viability [16] [%] | cell viability [17] [%] | cell viability [18] [%] | cell viability [19] [%] | cell viability [20] [%] | cell viability [21] [%] | cell viability [22] [%] | cell viability [23] [%] | cell viability [24] [%] | cell viability [25] [%] | cell viability [26] [%] | cell viability [27] [%] | cell viability [28] [%] | cell viability [29] [%] | cell viability [30] [%] | cell viability [31] [%] | cell viability [32] [%] | cell viability [33] [%]
C[C@H](NC(=O)Cc1cc(F)cc(F)c1)C(=O)N[C@@H]1C(=O)N(C)c2ccccc2-c2ccccc21 | 99 | 107 | 122 | 126 | 121 | 123 | 96.2 | 118 | 55.6 | 9.2 | 6.63 | 107 | 106 | 115 | 110 | 120 | 112 | 116 | 121 | 109 | 27.3 | 8.18 | 101 | 109 | 121 | 120 | 124 | 117 | 125 | 114 | 125 | 63.6 | 13.8
FC1=CC=C(CN2\C=C/C=C(/C(=O)N[C@@H](COC3=CC4=C(NC(=O)N4)C=C3)C5=CC=CC=C5)C2=O)C=C1F | 86.7 | 91.5 | 97 | 111 | 103 | 109 | 97.6 | 82.8 | 64.6 | 53.8 | 43.5 | 77.8 | 80.1 | 88.4 | 79.9 | 82.8 | 96.6 | 85.8 | 86.8 | 69.2 | 60.3 | 45.9 | 88.7 | 86.8 | 97.7 | 82.8 | 84.4 | 89.5 | 82.3 | 73.9 | 63.3 | 57.6 | 44.3
NCCCC(O)(P(=O)(O)O)P(=O)(O)O.O.O.O.[Na+] | – | – | – | – | – | – | – | – | – | – | – | 102 | – | – | – | 117 | 117 | 102 | 106 | 102 | – | – | – | 116 | 107 | 123 | 115 | 110 | 111 | 113 | 114 | 87.8 | 61.7
COCCCOc1ccnc(C[S+]([O-])c2nc3ccccc3[nH]2)c1C (centres undefined) | 92.5 | 116 | 113 | 123 | 123 | 122 | 116 | 127 | 130 | 119 | 117 | 126 | 118 | 110 | 109 | 131 | 124 | 105 | 126 | 115 | 118 | 124 | 108 | 114 | 119 | 120 | 133 | 119 | 119 | 121 | 120 | 115 | 129
Cn1cnc(-c2cc3nccc(Oc4ccc(NC(=S)NC(=O)Cc5ccccc5)cc4F)c3s2)c1 | 72.5 | 93.2 | 84.1 | 92.4 | 99.9 | 97.1 | 91.3 | 86 | 77.9 | 62 | 25.8 | 77.3 | 88.3 | 77.4 | 86.2 | 89.8 | 96.4 | 89.6 | 87.5 | 82.2 | 85.2 | 20.5 | 84 | 81.2 | 68.1 | 86 | 93.6 | 101 | 83 | 90 | 86.1 | 88.1 | 26.7
CN1CCN(Cc2ccc(NC(=O)Nc3ccc(Oc4cc(NC(=O)C5CC5)ncn4)cc3)cc2C(F)(F)F)CC1 | 104 | 104 | 120 | 129 | 143 | 141 | 12 | 4.6 | 3.07 | 2.49 | 0.956 | 110 | 125 | 118 | 125 | 138 | 149 | 22 | 8.28 | 6.02 | 4.38 | 2.32 | 106 | 122 | 114 | 125 | 146 | 161 | 18 | 6.64 | 5.97 | 3.84 | 2.43
COC1=CC(=CC=C1)C2=CC=C(NC(=O)/C3=C(/CCC3)C(O)=O)C(=C2)F | 122 | 114 | 128 | 113 | 105 | 87.8 | 115 | 112 | 103 | 100 | 92.1 | 102 | 109 | 103 | 97.8 | 96.3 | 116 | 99.2 | 109 | 104 | 96 | 84.7 | 115 | 105 | 122 | 121 | 120 | 121 | 113 | 107 | 106 | 102 | 63.8
